The record followed here is patent publication US11814367B2, “Inhibitors of glycogen synthase 1 (GYS1) and methods of use thereof” (Maze Therapeutics, Inc., priority 2021, dated 2023).

Each structure is given as a SMILES string.

For assay [1], the target named is hGYS2 enzyme (recombinant hGYS2/GN1 protein) (Homo sapiens (Human), UniProt P54840). Description: GYS2 coupled enzyme assay (PK/LDH). The settings on record: geometric mean of at least 2 assay runs on separate days, read-out: Avg_IC50. The class given is biochemical. Summed up: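 hGYS2/GN1 200 nM; UDP-Glc 2 mM; glycogen 0.2%; G6P 2 mM; PEP 2 mM, NADH 0.6 mM, PK/LDH 20 U/mL. 50 mM Tris pH 7.5, MgCl2, KCl, BSA, TCEP, 2.5% DMSO. Kinetic A340, 10 min. IC50 = geomean of ≥2 runs.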
Sequence of hGYS2 enzyme (recombinant hGYS2/GN1 protein) (P54840 whole entry): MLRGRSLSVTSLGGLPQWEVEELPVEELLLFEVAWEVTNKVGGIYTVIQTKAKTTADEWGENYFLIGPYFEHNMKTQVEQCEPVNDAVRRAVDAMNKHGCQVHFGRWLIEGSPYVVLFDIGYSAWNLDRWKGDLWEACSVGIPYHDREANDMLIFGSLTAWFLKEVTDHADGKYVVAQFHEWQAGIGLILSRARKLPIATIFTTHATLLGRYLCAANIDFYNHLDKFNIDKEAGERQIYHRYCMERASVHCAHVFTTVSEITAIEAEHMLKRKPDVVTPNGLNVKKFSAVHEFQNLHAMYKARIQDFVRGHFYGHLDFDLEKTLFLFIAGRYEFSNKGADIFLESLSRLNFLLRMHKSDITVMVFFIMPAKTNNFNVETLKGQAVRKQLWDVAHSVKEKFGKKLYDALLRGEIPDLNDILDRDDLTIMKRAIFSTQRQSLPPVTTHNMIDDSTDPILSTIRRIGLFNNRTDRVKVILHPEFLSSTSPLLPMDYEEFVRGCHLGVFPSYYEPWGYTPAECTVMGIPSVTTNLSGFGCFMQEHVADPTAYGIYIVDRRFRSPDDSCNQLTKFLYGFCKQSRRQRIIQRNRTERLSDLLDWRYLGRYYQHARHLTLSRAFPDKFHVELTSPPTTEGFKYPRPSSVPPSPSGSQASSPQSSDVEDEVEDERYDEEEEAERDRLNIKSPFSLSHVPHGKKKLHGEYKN
Sequence of hGYS2 enzyme (recombinant hGYS2/GN1 protein) (P46976 whole entry partner): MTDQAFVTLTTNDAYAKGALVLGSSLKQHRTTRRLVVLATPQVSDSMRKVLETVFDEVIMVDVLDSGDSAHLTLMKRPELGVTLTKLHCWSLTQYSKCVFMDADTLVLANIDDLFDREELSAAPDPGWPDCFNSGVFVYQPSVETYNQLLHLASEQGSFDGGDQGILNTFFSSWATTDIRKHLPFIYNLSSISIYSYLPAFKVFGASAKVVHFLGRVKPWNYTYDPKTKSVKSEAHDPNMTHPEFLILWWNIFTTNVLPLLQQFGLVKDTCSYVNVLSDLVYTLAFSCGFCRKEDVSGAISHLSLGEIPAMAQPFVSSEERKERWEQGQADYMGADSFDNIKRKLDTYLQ

Assay [2] concerns hGYS1 enzyme / glycogen synthesis in HeLa cells. Description: GYS1 cell based assay (glycogen synthesis, Glucose-glo). More on the design: species or system human. The settings on record: Homo sapiens, HeLa, 24 h, 24 h incubation, 20 mM glucose, geometric mean of at least 2 runs. Summed up: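 HeLa cells starved 24 h in medium containing only 1× Glutamax were plated onto compound in medium with 20 mM glucose (1% DMSO final) for 24 h, 37 °C, 5% CO2. Acid lysates were Tris-quenched, glucoamylase-digested (pH 5.3, 1 h, 37 °C) and read by Glucose-glo luminescence. IC50 came from Hill fits, as geometric mean of ≥2 runs.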

The target in assay [3] is hGYS1 enzyme (recombinant hGYS1/GN1 protein) (Homo sapiens (Human), UniProt P13807). Description: GYS1 coupled enzyme assay (PK/LDH). The class given is biochemical. The note with it: hGYS1/GN1 50 nM, UDP-Glucose 0.8 mM, G6P 1 mM; geometric mean of at least 2 runs.
Sequence of hGYS1 enzyme (recombinant hGYS1/GN1 protein) (P13807 whole entry): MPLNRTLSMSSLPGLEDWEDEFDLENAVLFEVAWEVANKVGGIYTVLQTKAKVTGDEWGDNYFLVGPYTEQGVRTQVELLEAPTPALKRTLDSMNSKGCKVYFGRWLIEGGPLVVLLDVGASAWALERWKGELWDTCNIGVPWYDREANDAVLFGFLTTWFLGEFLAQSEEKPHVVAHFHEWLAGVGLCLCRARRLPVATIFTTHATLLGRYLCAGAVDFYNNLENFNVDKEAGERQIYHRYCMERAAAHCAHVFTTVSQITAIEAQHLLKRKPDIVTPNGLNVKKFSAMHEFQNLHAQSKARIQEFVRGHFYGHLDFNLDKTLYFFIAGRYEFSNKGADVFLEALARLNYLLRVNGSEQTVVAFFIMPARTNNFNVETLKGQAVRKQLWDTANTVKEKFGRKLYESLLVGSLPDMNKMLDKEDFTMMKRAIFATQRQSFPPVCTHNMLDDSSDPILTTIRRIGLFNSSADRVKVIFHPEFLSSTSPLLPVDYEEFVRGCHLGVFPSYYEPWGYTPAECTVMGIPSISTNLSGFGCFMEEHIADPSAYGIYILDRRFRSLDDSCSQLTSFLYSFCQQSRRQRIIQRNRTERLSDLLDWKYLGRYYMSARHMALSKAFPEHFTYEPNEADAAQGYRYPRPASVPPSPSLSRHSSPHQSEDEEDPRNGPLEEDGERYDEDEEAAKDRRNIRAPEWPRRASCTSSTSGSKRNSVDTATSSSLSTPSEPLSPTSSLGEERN
Sequence of hGYS1 enzyme (recombinant hGYS1/GN1 protein) (P46976 whole entry partner): as the sequence (P46976 whole entry partner) above

For the molecule `CC(C)c1ccc([C@@H](NC(=O)[C@@H]2C[C@@H](F)CN2C(=O)Cn2cnc3ccccc32)c2ccccc2)nc1F` [Compound 389, (2S,4R)-1-[2-(1H-1,3-benzodiazol-1-yl)acetyl]-4-fluoro-N-[(S)-[6-fluoro-5-(propan-2-yl)pyridin-2-yl](phenyl)methyl] pyrrolidine-2-carboxamide], the IC50 is greater than 90300 nM in assay [1], 50 nM in assay [2] and 4 nM in assay [3].
As to `CC(C)c1ccc([C@@H](NC(=O)[C@@H]2C[C@@H](F)CN2C(=O)Cn2cnnc2)c2ccccc2)nc1F` [Compound 390, (2S,4R)-4-fluoro-N-[(S)-[6-fluoro-5-(propan-2-yl)pyridin-2-yl](phenyl)methyl]-1-[2-(4H-1,2,4-triazol-4-yl)acetyl] pyrrolidine-2-carboxamide], the values for the IC50 in assay [1], in assay [2] and in assay [3] were greater than 100000 nM, 1030 nM and 27 nM, respectively.
Taken in the same sequence, the figures for `CC(C)c1ccc([C@@H](NC(=O)[C@@H]2C[C@@H](F)CN2C(=O)Cc2cccn3c(=O)[nH]nc23)c2ccccc2)nc1F` [Compound 391, (2S,4R)-4-fluoro-N-[(S)-[6-fluoro-5-(propan-2-yl)pyridin-2-yl](phenyl)methyl]-1-(2-{3-oxo-2H,3H-[1,2,4]triazolo[4,3-a]pyridin-8-yl}acetyl) pyrrolidine-2-carboxamide] were 89300 nM, 150 nM and 6 nM.
For the molecule `CC(C)c1ccc([C@@H](NC(=O)[C@@H]2C[C@@H](F)CN2C(=O)Cn2ncc(N(C)C)n2)c2ccccc2)nc1F` [Compound 392, (2S,4R)-1-{2-[4-(dimethylamino)-2H-1,2,3-triazol-2-yl]acetyl}-4-fluoro-N-[(S)-[6-fluoro-5-(propan-2-yl)pyridin-2-yl](phenyl)methyl] pyrrolidine-2-carboxamide], the IC50 in assay [1] is greater than 100000 nM; in assay [2], 100 nM; in assay [3], 5 nM.
Taken in the same sequence, the figures for `CC(C)c1ccc([C@@H](NC(=O)[C@@H]2C[C@@H](F)CN2C(=O)Cn2cc(N(C)C)nn2)c2ccccc2)nc1F` [Compound 393, (2S,4R)-1-{2-[4-(dimethylamino)-1H-1,2,3-triazol-1-yl]acetyl}-4-fluoro-N-[(S)-[6-fluoro-5-(propan-2-yl)pyridin-2-yl](phenyl)methyl] pyrrolidine-2-carboxamide] were greater than 100000 nM, 120 nM and 8 nM.
Taken in the same sequence, the figures for `CC(C)c1ccc([C@@H](NC(=O)[C@@H]2C[C@@H](F)CN2C(=O)CNC(=O)N(C)C)c2ccccc2)nc1F` [Compound 394, (2S,4R)-1-{2-[(dimethylcarbamoyl)amino]acetyl}-4-fluoro-N-[(S)-[6-fluoro-5-(propan-2-yl)pyridin-2-yl](phenyl)methyl] pyrrolidine-2-carboxamide] were greater than 100000 nM, 150 nM and 7 nM.
`CNC(=O)NCC(=O)N1C[C@H](F)C[C@H]1C(=O)N[C@@H](c1ccccc1)c1ccc(C(C)C)c(F)n1` [Compound 395, (2S,4R)-4-fluoro-N-[(S)-[6-fluoro-5-(propan-2-yl)pyridin-2-yl](phenyl)methyl]-1-{2-[(methylcarbamoyl)amino]acetyl}pyrrolidine-2-carboxamide]: the IC50 in assay [1] is greater than 100000 nM; in assay [2], 240 nM; in assay [3], 8 nM.
As for `CC(C)c1ccc([C@@H](NC(=O)[C@@H]2C[C@@H](F)CN2C(=O)CNC(N)=O)c2ccccc2)nc1F` [Compound 396, (2S,4R)-1-[2-(carbamoylamino)acetyl]-4-fluoro-N-[(S)-[6-fluoro-5-(propan-2-yl)pyridin-2-yl](phenyl)methyl] pyrrolidine-2-carboxamide], the IC50 is greater than 100000 nM in assay [1], 330 nM in assay [2] and 13 nM in assay [3].
Taken in the same sequence, the figures for `CC(C)c1ccc([C@@H](NC(=O)[C@@H]2C[C@@H](F)CN2C(=O)Cc2n[nH]c(=O)n2C)c2ccccc2)nc1F` [Compound 398, (2S,4R)-4-fluoro-N-[(S)-[6-fluoro-5-(propan-2-yl)pyridin-2-yl](phenyl)methyl]-1-[2-(4-methyl-5-oxo-4,5-dihydro-1H-1,2,4-triazol-3-yl)acetyl] pyrrolidine-2-carboxamide] were greater than 100000 nM, 280 nM and 9 nM.
Taken in the same sequence, the figures for `CC(C)c1ccc([C@@H](NC(=O)[C@@H]2C[C@@H](F)CN2C(=O)CNC(=O)N2CCC2)c2ccccc2)nc1F` [Compound 399, (2S,4R)-1-{2-[(azetidine-1-carbonyl)amino]acetyl}-4-fluoro-N-[(S)-[6-fluoro-5-(propan-2-yl)pyridin-2-yl](phenyl)methyl] pyrrolidine-2-carboxamide] were greater than 100000 nM, 150 nM and 8 nM.
Take `CC(C)c1ccc([C@@H](NC(=O)[C@@H]2C[C@@H](F)CN2C(=O)Cn2nnnc2C(F)F)c2ccccc2)nc1F` [Compound 400, (2S,4R)-1-{2-[5-(difluoromethyl)-1H-1,2,3,4-tetrazol-1-yl]acetyl}-4-fluoro-N-[(S)-[6-fluoro-5-(propan-2-yl)pyridin-2-yl](phenyl)methyl] pyrrolidine-2-carboxamide]: the IC50 in assay [1] is greater than 100000 nM; in assay [2], 170 nM; in assay [3], 12 nM.
For `CC(C)c1ccc([C@@H](NC(=O)[C@@H]2C[C@@H](F)CN2C(=O)Cc2nn(C)c(=O)o2)c2ccccc2)nc1F` [Compound 401, (2S,4R)-4-fluoro-N-[(S)-[6-fluoro-5-(propan-2-yl)pyridin-2-yl](phenyl)methyl]-1-[2-(4-methyl-5-oxo-4,5-dihydro-1,3,4-oxadiazol-2-yl)acetyl]pyrrolidine-2-carboxamide], in that order: greater than 100000 nM, 290 nM and 10 nM.
As for `CC(C)c1ccc([C@@H](NC(=O)[C@@H]2C[C@@H](F)CN2C(=O)Cc2noc(=O)n2C)c2ccccc2)nc1F` [Compound 402, (2S,4R)-4-fluoro-N-[(S)-[6-fluoro-5-(propan-2-yl)pyridin-2-yl](phenyl)methyl]-1-[2-(4-methyl-5-oxo-4,5-dihydro-1,2,4-oxadiazol-3-yl)acetyl]pyrrolidine-2-carboxamide], the IC50 in assay [1] is greater than 100000 nM; in assay [2] it was 850 nM; in assay [3] it was 59 nM.
Taken in the same sequence, the figures for `CC(C)c1ccc([C@@H](NC(=O)[C@@H]2C[C@@H](F)CN2C(=O)Cc2[nH]nnc2C(F)(F)F)c2ccccc2)nc1F` [Compound 403, (2S,4R)-4-fluoro-N-[(S)-[6-fluoro-5-(propan-2-yl)pyridin-2-yl](phenyl)methyl]-l-{2-[4-(trifluoromethyl)-1H-1,2,3-triazol-5-yl]acetyl}pyrrolidine-2-carboxamide] were greater than 100000 nM, 140 nM and 4 nM.
For `Cc1nccc(NCC(=O)N2C[C@H](F)C[C@H]2C(=O)N[C@@H](c2ccccc2)c2ccc(C(C)C)c(F)n2)n1` [Compound 404, (2S,4R)-4-fluoro-N-[(S)-[6-fluoro-5-(propan-2-yl)pyridin-2-yl](phenyl)methyl]-1-{2-[(2-methylpyrimidin-4-yl)amino]acetyl} pyrrolidine-2-carboxamide], in that order: greater than 100000 nM, 70 nM and 6 nM.
Taken in the same sequence, the figures for `CC(C)c1ccc([C@@H](NC(=O)[C@@H]2C[C@@H](F)CN2C(=O)[C@H](C)NC(=O)N(C)C)c2ccccc2)nc1F` [Compound 405, (2S,4R)-1-[(2S)-2-[(dimethylcarbamoyl)amino]propanoyl]-4-fluoro-N-[(S)-[6-fluoro-5-(propan-2-yl)pyridin-2-yl](phenyl)methyl] pyrrolidine-2-carboxamide] were greater than 100000 nM, 490 nM and 20 nM.
In the case of `CC(C)c1ccc([C@@H](NC(=O)[C@@H]2C[C@@H](F)CN2C(=O)[C@@H](C)NC(=O)N(C)C)c2ccccc2)nc1F` [Compound 406, (2S,4R)-1-[(2R)-2-[(dimethylcarbamoyl)amino]propanoyl]-4-fluoro-N-[(S)-[6-fluoro-5-(propan-2-yl)pyridin-2-yl](phenyl)methyl] pyrrolidine-2-carboxamide], the IC50 in assay [1] was greater than 100000 nM; in assay [2] it was 760 nM; in assay [3], 41 nM.
Consider `CC(C)c1ccc([C@@H](NC(=O)[C@@H]2C[C@@H](F)CN2C(=O)Cc2ncco2)c2ccccc2)nc1F` [Compound 407, (2S,4R)-4-fluoro-N-[(S)-[6-fluoro-5-(propan-2-yl)pyridin-2-yl](phenyl)methyl]-1-[2-(1,3-oxazol-2-yl)acetyl]pyrrolidine-2-carboxamide], for which the IC50 in assay [1] is greater than 100000 nM; in assay [2] it was 420 nM; in assay [3] it was 15 nM.
On to `Cc1cnc(CC(=O)N2C[C@H](F)C[C@H]2C(=O)N[C@@H](c2ccccc2)c2ccc(C(C)C)c(F)n2)o1` [Compound 408, (2S,4R)-4-fluoro-N-[(S)-[6-fluoro-5-(propan-2-yl)pyridin-2-yl](phenyl)methyl]-1-[2-(5-methyl-1,3-oxazol-2-yl)acetyl] pyrrolidine-2-carboxamide], for which the IC50 in assay [1] is greater than 100000 nM; in assay [2], 350 nM; in assay [3], 8 nM.
